Measured values published in patent publication US20250049970A1, “DLL3 TARGETING PEPTIDES AND CONSTRUCTS THEREOF” (MARIANA ONCOLOGY INC., priority 2023, published 2025).
*1 amine or outer side, *2 acyl side, *3 side chain or, on linkers, in order; H or OH if unused. Where a SMILES comes first, the peptide text is derived from it. Bridges are numbered along the chain shown (N, C = ends). [ ]: non-standard residue; d: D form. The star is where a group is joined. ξ: configuration not given here. Ala(piperidin-4-yl) = O=C([C@H](CC1CCN([*:3])CC1)N[*:1])[*:2]; DOTA = O=C(O)CN1CCN(CC(=O)O)CCN(CC(=O)*)CCN(CC(=O)O)CC1; Phe(4-CF3) = N[C@@H](Cc1ccc(C(F)(F)F)cc1)C(=O)O; Trp(7-aza) = N[C@@H](Cc1c[nH]c2ncccc12)C(=O)O; Bip = N[C@@H](Cc1ccc(-c2ccccc2)cc1)C(=O)O; Phe(4-F) = N[C@@H](Cc1ccc(F)cc1)C(=O)O; 2Nal = N[C@@H](Cc1ccc2ccccc2c1)C(=O)O; NMetBuAla = CN[C@@H](CC(C)(C)C)C(=O)O; tBuAla = CC(C)(C)C[C@H](N)C(=O)O; ξIle = CC[C@H](C)C(N)C(=O)O; Dab = NCC[C@H](N)C(=O)O; Dap = NC[C@H](N)C(=O)O; CH2 = C([*:1])[*:2]

Molecular target: T1, DLL3 (Homo sapiens, UniProt Q9NYJ7)
T1 sequence (Q9NYJ7 27-618): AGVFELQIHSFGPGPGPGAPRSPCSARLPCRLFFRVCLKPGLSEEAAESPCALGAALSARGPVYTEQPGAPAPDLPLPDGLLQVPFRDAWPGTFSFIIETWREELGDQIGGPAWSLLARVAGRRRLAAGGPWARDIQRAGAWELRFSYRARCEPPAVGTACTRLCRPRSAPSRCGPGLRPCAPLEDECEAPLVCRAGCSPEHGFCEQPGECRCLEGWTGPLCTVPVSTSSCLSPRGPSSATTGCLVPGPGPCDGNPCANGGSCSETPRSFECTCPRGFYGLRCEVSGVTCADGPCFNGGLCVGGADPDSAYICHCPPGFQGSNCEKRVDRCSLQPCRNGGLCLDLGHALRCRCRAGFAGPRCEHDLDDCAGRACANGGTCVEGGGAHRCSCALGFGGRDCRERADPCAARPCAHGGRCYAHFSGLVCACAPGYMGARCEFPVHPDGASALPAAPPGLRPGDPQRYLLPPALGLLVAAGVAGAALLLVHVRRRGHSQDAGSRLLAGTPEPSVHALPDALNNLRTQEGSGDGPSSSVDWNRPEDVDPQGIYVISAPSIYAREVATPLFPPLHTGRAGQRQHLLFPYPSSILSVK
Assay: SPR KD, biotinylated human DLL3 on streptavidin chip (Table 8)
Parameters: biotin (biotinylated)
Conditions: biotinylated human DLL3 on streptavidin sensor chip, 25° C., 1:1 binding model; read-out: SPR KD
Description: Biotinylated target ligand human DLL3 was immobilized on a streptavidin sensor chip. A reference surface was set up for nonspecific binding and refractive index changes. […] Sensorgram curves were fitted with 1:1 binding model, and affinity and kinetic parameters were obtained using Biacore Insight evaluation 4.0. software.

Row | SMILES | Kd [nM]
1 | CC[C@H](C)[C@H](NC(=O)[C@@H](NC(=O)[C@H](Cc1c[nH]c2ccccc12)NC(C)=O)[C@@H](C)O)C(=O)N[C@H]1CSSC[C@@H](C(=O)N[C@@H](Cc2c[nH]c3ncccc23)C(=O)N2CCC[C@H]2C(N)=O)NC(=O)[C@H](CC(=O)O)NC(=O)[C@H](Cc2c[nH]cn2)NC(=O)[C@H](Cc2c[nH]c3ccccc23)NC(=O)[C@H](CC(N)=O)NC(=O)[C@H](CC(N)=O)NC1=O [compound 51, Ac-W-T-I-C(3)-N-N-W-H-D-C(3)-(7Aza-W)-P-CONH2] (Ac-WTICNNWHDC[Trp(7-aza)]P-NH2; disulfide 4-10) | 1 to 10
2 | CC[C@H](C)[C@H](NC(=O)[C@@H](NC(=O)[C@H](Cc1c[nH]c2ccccc12)NC(C)=O)[C@@H](C)O)C(=O)N[C@H]1CSSC[C@@H](C(=O)N[C@@H](Cc2ccc(F)cc2)C(=O)N2CCC[C@H]2C(N)=O)NC(=O)[C@H](CC(=O)O)NC(=O)[C@H](Cc2c[nH]cn2)NC(=O)[C@H](Cc2c[nH]c3ccccc23)NC(=O)[C@H](CC(N)=O)NC(=O)[C@H](CC(N)=O)NC1=O [compound 52, Ac-W-T-I-C(3)-N-N-W-H-D-C(3)-(4Fluoro-F)-P-CONH2] (Ac-WTICNNWHDC[Phe(4-F)]P-NH2; disulfide 4-10) | 10 to 100
3 | CC[C@H](C)[C@H](NC(=O)[C@@H](NC(=O)[C@H](Cc1c[nH]c2ccccc12)NC(C)=O)[C@@H](C)O)C(=O)N[C@H]1CSSC[C@@H](C(=O)N[C@@H](Cc2c[nH]c3ccccc23)C(=O)N2CCC[C@H]2C(N)=O)NC(=O)[C@H](CC(=O)O)NC(=O)[C@H](Cc2cnc[nH]2)NC(=O)[C@H](Cc2ccc(-c3ccccc3)cc2)NC(=O)[C@H](CC(N)=O)NC(=O)[C@H](CC(N)=O)NC1=O [compound 53, Ac-W-T-I-C(3)-N-N-(BIP)-H-D-C(3)-W-P-CONH2] (Ac-WTICNN[Bip]HDCWP-NH2; disulfide 4-10) | 10 to 100
4 | CC[C@H](C)[C@H](NC(=O)[C@@H](NC(=O)[C@H](Cc1c[nH]c2ccccc12)NC(C)=O)[C@@H](C)O)C(=O)N[C@H]1CCC(=O)NCC[C@@H](C(=O)N[C@@H](Cc2c[nH]c3ccccc23)C(=O)N2CCC[C@H]2C(N)=O)NC(=O)[C@H](CC(=O)O)NC(=O)[C@H](Cc2c[nH]cn2)NC(=O)[C@H](Cc2c[nH]c3ccccc23)NC(=O)[C@H](CC(N)=O)NC(=O)[C@H](CC(N)=O)NC1=O [compound 71] (Ac-WTIENNWHD[Dab]WP-NH2; lactam 4-10) | 100 to 300
5 | CC[C@H](C)[C@H](NC(=O)[C@@H](NC(=O)[C@H](Cc1c[nH]c2ccccc12)NC(=O)[C@H](CCSC)NC(C)=O)[C@@H](C)O)C(=O)N[C@H]1CSSC[C@@H](C(=O)N[C@@H](Cc2c[nH]c3ccccc23)C(=O)N2CCC[C@H]2C(N)=O)NC(=O)[C@H](CC(=O)O)NC(=O)[C@@H](C)NC(=O)[C@H](Cc2c[nH]c3ccccc23)NC(=O)[C@H](CC(N)=O)NC(=O)[C@H](CC(N)=O)NC1=O [compound 72] (Ac-MWTICNNW[dA]DCWP-NH2; disulfide 5-11) | 100 to 300
6 | CC(=O)N[C@@H](Cc1c[nH]c2ccccc12)C(=O)N[C@H](C(=O)N[C@@H](CC(C)(C)C)C(=O)N[C@H]1CSCSC[C@@H](C(=O)N[C@@H](Cc2c[nH]c3ccccc23)C(=O)N2CCC[C@H]2C(N)=O)NC(=O)[C@H](CC(=O)O)NC(=O)[C@H](CCCCNC(=O)CN2CCN(CC(=O)O)CCN(CC(=O)O)CCN(CC(=O)O)CC2)NC(=O)[C@H](Cc2ccc3ccccc3c2)NC(=O)[C@H](CC(N)=O)NC(=O)[C@H](CC2CCNCC2)NC1=O)[C@@H](C)O [compound 94] (Ac-WT[tBuAla]C[Ala(piperidin-4-yl)]N[2Nal]K(DOTA)DCWP-NH2; linker 4-10 via CH2) | < 1
7 | CC[C@@H](C)[C@@H](NC(=O)[C@H](NC(=O)[C@@H](Cc1c[nH]c2ccccc12)NC(C)=O)[C@H](C)O)C(=O)N[C@H]1CC(=O)NCC[C@@H](C(=O)N[C@@H](Cc2c[nH]c3ccccc23)C(=O)N2CCC[C@H]2C(N)=O)NC(=O)[C@H](CC(=O)O)NC(=O)[C@H](Cc2c[nH]cn2)NC(=O)[C@H](Cc2c[nH]c3ccccc23)NC(=O)[C@H](CC(N)=O)NC(=O)[C@H](CC(N)=O)NC1=O [compound 95, Ac-W-T-I-(L-Asp)*-N-N-W-H-D-(L-2,4-Dab)*-W-P-CONH2 (* denotes lactam between side chains between L-Asp and L-2,4-Dab)] (Ac-[dW][dT][dI]DNNWHD[Dab]WP-NH2; lactam 4-10) | 100 to 300
8 | CC[C@H](C)[C@H](NC(=O)[C@@H](NC(=O)[C@H](Cc1c[nH]c2ccccc12)NC(C)=O)[C@@H](C)O)C(=O)N[C@H]1CC(=O)NC[C@@H](C(=O)N[C@@H](Cc2c[nH]c3ccccc23)C(=O)N2CCC[C@H]2C(N)=O)NC(=O)[C@H](CC(=O)O)NC(=O)[C@H](Cc2c[nH]cn2)NC(=O)[C@H](Cc2c[nH]c3ccccc23)NC(=O)[C@H](CC(N)=O)NC(=O)[C@H](CC(N)=O)NC1=O [compound 120, Ac-W-T-I-(L-Asp)*-N-N-W-H-D-(L-Dap)*-W-P-CONH2 (* denotes lactam between side chains between L-Asp and L-Dap)] (Ac-WTIDNNWHD[Dap]WP-NH2; lactam 4-10) | 100 to 300
9 | CC(=O)N[C@@H](Cc1c[nH]c2ccccc12)C(=O)N[C@H](C(=O)N(C)[C@@H](CC(C)(C)C)C(=O)N[C@H]1CSCSC[C@@H](C(=O)N[C@@H](Cc2c[nH]c3ccccc23)C(=O)N2CCC[C@H]2C(N)=O)NC(=O)[C@H](CC(=O)O)NC(=O)[C@H](CCCCNC(=O)CN2CCN(CC(=O)O)CCN(CC(=O)O)CCN(CC(=O)O)CC2)NC(=O)[C@H](Cc2ccc3ccccc3c2)NC(=O)[C@H](CC(N)=O)NC(=O)[C@H](CC2CCNCC2)NC1=O)[C@@H](C)O [compound 153] (Ac-WT[NMetBuAla]C[Ala(piperidin-4-yl)]N[2Nal]K(DOTA)DCWP-NH2; linker 4-10 via CH2) | < 1
10 | CC[C@H](C)[C@H](NC(=O)[C@@H](NC(=O)[C@H](Cc1ccc(F)cc1)NC(C)=O)[C@@H](C)O)C(=O)N[C@H]1CSSC[C@@H](C(=O)N[C@@H](Cc2c[nH]c3ccccc23)C(=O)N2CCC[C@H]2C(N)=O)NC(=O)[C@H](CC(=O)O)NC(=O)[C@H](Cc2cnc[nH]2)NC(=O)[C@H](Cc2c[nH]c3ccccc23)NC(=O)[C@H](CC(N)=O)NC(=O)[C@H](CC(N)=O)NC1=O [compound 214, Ac-(4Fluoro-F)-T-I-C(3)-N-N-W-H-D-C(3)-W-P-CONH2] (Ac-[Phe(4-F)]TICNNWHDCWP-NH2; disulfide 4-10) | 100 to 300
11 | CC[C@H](C)[C@H](NC(=O)[C@@H](NC(=O)[C@H](Cc1ccc(C(F)(F)F)cc1)NC(C)=O)[C@@H](C)O)C(=O)N[C@H]1CSSC[C@@H](C(=O)N[C@@H](Cc2c[nH]c3ccccc23)C(=O)N2CCC[C@H]2C(N)=O)NC(=O)[C@H](CC(=O)O)NC(=O)[C@H](Cc2cnc[nH]2)NC(=O)[C@H](Cc2c[nH]c3ccccc23)NC(=O)[C@H](CC(N)=O)NC(=O)[C@H](CC(N)=O)NC1=O [compound 215, Ac-(4CF3-F)-T-I-C(3)-N-N-W-H-D-C(3)-W-P-CONH2] (Ac-[Phe(4-CF3)]TICNNWHDCWP-NH2; disulfide 4-10) | 10 to 100
12 | CC[C@H](C)[C@H](NC(=O)[C@@H](NC(=O)[C@H](Cc1c[nH]c2ccccc12)NC(C)=O)[C@@H](C)O)C(=O)N[C@H]1CSSC[C@@H](C(=O)N[C@@H](Cc2c[nH]c3ccccc23)C(=O)N2CCC[C@H]2C(=O)N[C@H](CCCCNC(=O)CN2CCN(CC(=O)O)CCN(CC(=O)O)CCN(CC(=O)O)CC2)C(N)=O)NC(=O)[C@H](CC(=O)O)NC(=O)[C@H](Cc2cnc[nH]2)NC(=O)[C@H](Cc2ccc3ccccc3c2)NC(=O)[C@H](CC(N)=O)NC(=O)[C@H](CCCCNC(=O)CN2CCN(CC(=O)O)CCN(CC(=O)O)CCN(CC(=O)O)CC2)NC1=O [compound 247] (Ac-WTICK(DOTA)N[2Nal]HDCWP[dK](DOTA)-NH2; disulfide 4-10) | < 1
13 | CC[C@H](C)C(NC(=O)[C@@H](NC(=O)[C@H](Cc1c[nH]c2ccccc12)NC(C)=O)[C@@H](C)O)C(=O)N[C@H]1CSSC[C@@H](C(=O)N[C@@H](Cc2c[nH]c3ccccc23)C(=O)N2CCC[C@H]2C(=O)N[C@H](CCCCNC(=O)CN2CCN(CC(=O)O)CCN(CC(=O)O)CCN(CC(=O)O)CC2)C(N)=O)NC(=O)[C@H](CC(=O)O)NC(=O)[C@H](Cc2cnc[nH]2)NC(=O)[C@H](Cc2ccc3ccccc3c2)NC(=O)[C@H](CCCCNC(=O)CN2CCN(CC(=O)O)CCN(CC(=O)O)CCN(CC(=O)O)CC2)NC(=O)[C@H](CC(N)=O)NC1=O (stereo partly drawn) [compound 248, Ac-W-T-I-C(3)-N-Lys(DOTA)-(2Nal)-H-D-C(3)-W-P-[D-Lys(DOTA)]-NH2] (Ac-WT[ξIle]CNK(DOTA)[2Nal]HDCWP[dK](DOTA)-NH2; disulfide 4-10) | < 1
14 | CC[C@H](C)[C@H](NC(=O)[C@@H](NC(=O)[C@H](Cc1c[nH]c2ccccc12)NC(C)=O)[C@@H](C)O)C(=O)N[C@H]1CSSC[C@@H](C(=O)N[C@@H](Cc2c[nH]c3ccccc23)C(=O)N2CCC[C@H]2C(N)=O)NC(=O)[C@H](CC(=O)O)NC(=O)[C@H](Cc2c[nH]cn2)NC(=O)[C@H](Cc2ccc3ccccc3c2)NC(=O)[C@H](CCCCNC(=O)CN2CCN(CC(=O)O)CCN(CC(=O)O)CCN(CC(=O)O)CC2)NC(=O)[C@H](CC(N)=O)NC1=O [compound 250, Ac-W-T-I-C(3)-N-Lys(DOTA)-(2Nal)-H-D-C(3)-W-P-CONH2] (Ac-WTICNK(DOTA)[2Nal]HDCWP-NH2; disulfide 4-10) | 1 to 10
